From patent US9125913B2, “Bcl-2-selective apoptosis-inducing agents for the treatment of cancer and immune diseases” (AbbVie Inc., priority 2008, dated 2015)

Experiments:
GST-Bcl-2 = assay: TR-FRET binding assay, Bcl-2; conditions: TR-FRET Ki values
Method in brief: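 Compounds serially diluted in DMSO from 50 μM (2× starting concentration, 10% DMSO), mixed with GST-tagged protein, F-Bak peptide probe and Tb-labeled antibody, incubated 3 h at room temperature.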

FL5.12/Bcl-2 cells = assay: FL5.12/Bcl-2 cell viability assay; assay type: cell-based, murine; conditions: ratio of canine platelet EC50 to FL5.12/Bcl-2 EC50
Source text: FL5.12 is an IL-3 dependent prolymphocytic murine cell line that undergoes apoptosis upon IL-3 withdrawal as a result of the upregulation of pro-apoptotic Bcl-2 proteins such as Bim and Puma. Stable overexpression of anti-apoptotic Bcl-2 protein (FL5.12/Bcl-2) protects against apoptosis induced by IL-3 withdrawal by sequestration of Bim and Puma. […] The ability of compounds to kill FL5.12/Bcl-2 cells upon IL-3 withdrawal is a direct measure of the compounds' ability to inhibit anti-apoptotic Bcl-2 protein function.
Wild type FL5.12/Bcl-2 overexpressing stable transfectants were cultured in RPMI-1640 supplemented with 2 mM L-glutamine, 10% FBS, 1 mM sodium pyruvate, 2 mM HEPES, 1% penicillin/streptomycin (Invitrogen), 57 μM β-ME, and 10% WEHI-3B conditioned medium (source of IL-3) and maintained at 37° C. containing 5% CO2. 1×10^6 cells/ml were washed 1×PBS and resuspended in medium not supplemented with 10% WEHI-3B for 48 hrs prior to cytotoxicity assays. Cells were then treated for an additional 24 hrs in the presence of various concentrations of the indicated compounds. Cell viability was assessed by CellTitre Glo assay (Promega Corp.) according to the manufacturer's recommendations.

| Structure (SMILES) | Binding selectivity ratio (Bcl-XL Ki/Bcl-2 Ki) (GST-Bcl-2) | Selectivity Ratio (Platelet EC50/FL5.12/Bcl-2 EC50) (FL5.12/Bcl-2 cells) |
| --- | --- | --- |
| O=C(NS(=O)(=O)c1ccc(NCC2CCOCC2)c([N+](=O)[O-])c1)c1ccc(N2CCN(Cc3ccccc3-c3ccc(Cl)cc3)CC2)cc1Oc1ccc2[nH]ccc2c1 [Example 40, 4-{4-[(4′-chloro-1,1′-biphenyl-2-yl)methyl]piperazin-1-yl}-2-(1H-indol-5-yloxy)-N-({3-nitro-4-[(tetrahydro-2H-pyran-4-ylmethyl)amino]phenyl}sulfonyl)benzamide] | >1236.0 | >303 |
| O=C(NS(=O)(=O)c1ccc(NCC2CCOCC2)c([N+](=O)[O-])c1)c1ccc(N2CCN(Cc3ccccc3-c3ccc(Cl)cc3)CC2)cc1Oc1cccc2[nH]ccc12 [Example 45, 4-{4-[(4′-chloro-1,1′-biphenyl-2-yl)methyl]piperazin-1-yl}-2-(1H-indol-4-yloxy)-N-({3-nitro-4-[(tetrahydro-2H-pyran-4-ylmethyl)amino]phenyl}sulfonyl)benzamide] | >797.1 | >360 |
| CN(C)CCCNc1ccc(S(=O)(=O)NC(=O)c2ccc(N3CCN(Cc4ccccc4-c4ccc(Cl)cc4)CC3)cc2Oc2cccc3[nH]ccc23)cc1[N+](=O)[O-] [Example 46, 4-{4-[(4′-chloro-1,1′-biphenyl-2-yl)methyl]piperazin-1-yl}-N-[(4-{[3-(dimethylamino)propyl]amino}-3-nitrophenyl)sulfonyl]-2-(1H-indol-4-yloxy)benzamide] | 119.2 | 725 |
| CC1(C)CCC(CN2CCN(c3ccc(C(=O)NS(=O)(=O)c4ccc(NCCCN5CCOCC5)c([N+](=O)[O-])c4)c(Oc4ccc5[nH]ccc5c4)c3)CC2)=C(c2ccc(Cl)cc2)C1 [Example 52, 4-(4-{[2-(4-chlorophenyl)-4,4-dimethylcyclohex-1-en-1-yl]methyl}piperazin-1-yl)-2-(1H-indol-5-yloxy)-N-({4-[(3-morpholin-4-ylpropyl)amino]-3-nitrophenyl}sulfonyl)benzamide] | 333.9 | >3164 |
| CN(C)CCCNc1ccc(S(=O)(=O)NC(=O)c2ccc(N3CCN(CC4=C(c5ccc(Cl)cc5)CC(C)(C)CC4)CC3)cc2Oc2ccc3[nH]ccc3c2)cc1[N+](=O)[O-] [Example 53, 4-(4-{[2-(4-chlorophenyl)-4,4-dimethylcyclohex-1-en-1-yl]methyl}piperazin-1-yl)-N-[(4-{[3-(dimethylamino)propyl]amino}-3-nitrophenyl)sulfonyl]-2-(1H-indol-5-yloxy)benzamide] | 59.8 | 1697 |
| CC1(C)CCC(c2ccc(Cl)cc2)=C(CN2CCN(c3ccc(C(=O)NS(=O)(=O)c4ccc(NCCCN5CCOCC5)c([N+](=O)[O-])c4)c(Oc4cccc5[nH]ccc45)c3)CC2)C1 [Example 54, 4-(4-{[2-(4-chlorophenyl)-5,5-dimethylcyclohex-1-en-1-yl]methyl}piperazin-1-yl)-2-(1H-indol-4-yloxy)-N-({4-[(3-morpholin-4-ylpropyl)amino]-3-nitrophenyl}sulfonyl)benzamide] | 108.3 | >785 |
| CC1(C)CCC(CN2CCN(c3ccc(C(=O)NS(=O)(=O)c4ccc(NCCCN5CCOCC5)c([N+](=O)[O-])c4)c(Oc4cccc5[nH]ccc45)c3)CC2)=C(c2ccc(Cl)cc2)C1 [Example 55, 4-(4-{[2-(4-chlorophenyl)-4,4-dimethylcyclohex-1-en-1-yl]methyl}piperazin-1-yl)-2-(1H-indol-4-yloxy)-N-({4-[(3-morpholin-4-ylpropyl)amino]-3-nitrophenyl}sulfonyl)benzamide] | 126.9 | 1614 |
| CN(C)CCCNc1ccc(S(=O)(=O)NC(=O)c2ccc(N3CCN(CC4=C(c5ccc(Cl)cc5)CCC(C)(C)C4)CC3)cc2Oc2cccc3[nH]ccc23)cc1[N+](=O)[O-] [Example 56, 4-(4-{[2-(4-chlorophenyl)-5,5-dimethylcyclohex-1-en-1-yl]methyl}piperazin-1-yl)-N-[(4-{[3-(dimethylamino)propyl]amino}-3-nitrophenyl)sulfonyl]-2-(1H-indol-4-yloxy)benzamide] | 48.2 | 554 |
| CN(C)CCCNc1ccc(S(=O)(=O)NC(=O)c2ccc(N3CCN(CC4=C(c5ccc(Cl)cc5)CC(C)(C)CC4)CC3)cc2Oc2cccc3[nH]ccc23)cc1[N+](=O)[O-] [Example 57, 4-(4-{[2-(4-chlorophenyl)-4,4-dimethylcyclohex-1-en-1-yl]methyl}piperazin-1-yl)-N-[(4-{[3-(dimethylamino)propyl]amino}-3-nitrophenyl)sulfonyl]-2-(1H-indol-4-yloxy)benzamide] | 68.7 | 1077 |
| COc1ccc(C2=C(CN3CCN(c4ccc(C(=O)NS(=O)(=O)c5ccc(NCCCN6CCCC6)c([N+](=O)[O-])c5)c(Oc5cccc6[nH]ccc56)c4)CC3)CCC(C)(C)C2)cc1 [Example 68, 2-(1H-indol-4-yloxy)-4-(4-{[2-(4-methoxyphenyl)-4,4-dimethylcyclohex-1-en-1-yl]methyl}piperazin-1-yl)-N-({3-nitro-4-[(3-pyrrolidin-1-ylpropyl)amino]phenyl}sulfonyl)benzamide] | 11.4 | >1144 |
| CC1(C)CCC(CN2CCN(c3ccc(C(=O)NS(=O)(=O)c4ccc(NCCCN5CCCC5)c([N+](=O)[O-])c4)c(Oc4cccc5[nH]ccc45)c3)CC2)=C(c2ccc(C(F)(F)F)cc2)C1 [Example 69, 4-[4-({4,4-dimethyl-2-[4-(trifluoromethyl)phenyl]cyclohex-1-en-1-yl}methyl)piperazin-1-yl]-2-(1H-indol-4-yloxy)-N-({3-nitro-4-[(3-pyrrolidin-1-ylpropyl)amino]phenyl}sulfonyl)benzamide] | 74 | >666 |
| CC1(C)CCC(CN2CCN(c3ccc(C(=O)NS(=O)(=O)c4ccc(NCCCN5CCCC5)c([N+](=O)[O-])c4)c(Oc4cccc5[nH]ccc45)c3)CC2)=C(c2ccc(OC(F)(F)F)cc2)C1 [Example 70, 4-[4-({4,4-dimethyl-2-[4-(trifluoromethoxy)phenyl]cyclohex-1-en-1-yl}methyl)piperazin-1-yl]-2-(1H-indol-4-yloxy)-N-({3-nitro-4-[(3-pyrrolidin-1-ylpropyl)amino]phenyl}sulfonyl)benzamide] | 62.4 | >450 |
| CC1(C)CCC(CN2CCN(c3ccc(C(=O)NS(=O)(=O)c4ccc(NCCCN5CCCC5)c([N+](=O)[O-])c4)c(Oc4cccc5[nH]ccc45)c3)CC2)=C(c2cccc(C(F)(F)F)c2)C1 [Example 71, 4-[4-({4,4-dimethyl-2-[3-(trifluoromethyl)phenyl]cyclohex-1-en-1-yl}methyl)piperazin-1-yl]-2-(1H-indol-4-yloxy)-N-({3-nitro-4-[(3-pyrrolidin-1-ylpropyl)amino]phenyl}sulfonyl)benzamide] | >105.9 | >107 |
| CC1(C)CCC(CN2CCN(c3ccc(C(=O)NS(=O)(=O)c4ccc(NCCCN5CCCC5)c([N+](=O)[O-])c4)c(Oc4cccc5[nH]ccc45)c3)CC2)=C(c2cccc(F)c2)C1 [Example 72, 4-(4-{[2-(3-fluorophenyl)-4,4-dimethylcyclohex-1-en-1-yl]methyl}piperazin-1-yl)-2-(1H-indol-4-yloxy)-N-({3-nitro-4-[(3-pyrrolidin-1-ylpropyl)amino]phenyl}sulfonyl)benzamide] | 17.3 | >325 |
| CC1(C)CCC(CN2CCN(c3ccc(C(=O)NS(=O)(=O)c4ccc(NCCCN5CCCC5)c([N+](=O)[O-])c4)c(Oc4cccc5[nH]ccc45)c3)CC2)=C(c2ccc(F)cc2)C1 [Example 73, 4-(4-{[2-(4-fluorophenyl)-4,4-dimethylcyclohex-1-en-1-yl]methyl}piperazin-1-yl)-2-(1H-indol-4-yloxy)-N-({3-nitro-4-[(3-pyrrolidin-1-ylpropyl)amino]phenyl}sulfonyl)benzamide] | 9.9 | 166 |
| CN1CCC(Nc2ccc(S(=O)(=O)NC(=O)c3ccc(N4CCN(CC5=C(c6ccc(Cl)cc6)CC(C)(C)CC5)CC4)cc3Oc3ccc4[nH]ccc4c3)cc2S(=O)(=O)C(F)(F)Cl)CC1 [Example 74, N-({3-{[chloro(difluoro)methyl]sulfonyl}-4-[(1-methylpiperidin-4-yl)amino]phenyl}sulfonyl)-4-(4-{[2-(4-chlorophenyl)-4,4-dimethylcyclohex-1-en-1-yl]methyl}piperazin-1-yl)-2-(1H-indol-5-yloxy)benzamide] | 1262.5 | 1989 |
